# Measurements: patent US20250281620A1, “HYDROXYBISPHOSPHONIC DERIVATIVES OF MELOXICAM FOR THE TREATMENT OF INFLAMMATORY JOINT DISEASES” (Atlanthéra, priority 2021, published 2025)
# Tests used:
# [1] = Solubility in water; format: physicochemical; settings: general statement, no method described
# [2] = tested on: monoarthritis in rats; assay: mBSA-induced monoarthritis model in rats (knee swelling, limping); format: in vivo, rat; settings: oral daily meloxicam 0.2 mg/kg
# Description: Monoarthritis was induced in rats (male, Sprague Dawley strain, aged 14 weeks) by intra-articular injection (knee) of 100 μg of mBSA after two preliminary sensitizers (2 and 3 weeks before the induction) by subcutaneous injection of a CFA emulsion containing 500 μg of mBSA. The distribution was carried out on D2, 24 h after induction, as a function of the intensity of the swelling in order to obtain homogeneity between the groups. […] The HBP-meloxicam molecules were solubilized in 5% glucose. In control, the pathological animals (mBSA) received a single injection (caudal vein, 5 min infusion, volume of 10 mL/kg) of 5% glucose.
# In reference treatment, the animals received an oral daily administration of meloxicam for 28 days at the NOEL dose of 0.2 mg/kg-0.57 μmol/kg, i.e., a cumulative dose of 15.96 μmol/kg.
# The evolution of arthritis was monitored by measuring the swelling of the pathological knee as well as the animal's limping.
smiles,measurement,setting,value
Cc1cnc(NC(=O)C2=C(O)c3ccccc3S(=O)(=O)N2C)s1 [meloxicam],solubility in water,[1],very poorly soluble
same,end of limping after treatment,[2],9 days
